Measured values taken from ChEMBL document CHEMBL5137064, “Therapeutic Potential and Activity Modulation of the Protein Lysine Deacylase Sirtuin 5” (J Med Chem, 2022).
Blank lines part the entries; values can stand above or below the molecule they belong to.

Tests used:
OCI-AML2 [1] = assay: cells; settings: Homo sapiens
Description: Cytotoxicity against human OCI-AML2 cells

SKM-1 [2] = assay: cells; settings: Homo sapiens
Description: Cytotoxicity against human SKM-1 cells

[3] = biological target: T1, NAD-dependent protein deacetylase sirtuin-1 (Homo sapiens) (UniProt Q96EB6); assay: Inhibition of SIRT1 (unknown origin) at 1 uM relative to control
T1 sequence (whole entry): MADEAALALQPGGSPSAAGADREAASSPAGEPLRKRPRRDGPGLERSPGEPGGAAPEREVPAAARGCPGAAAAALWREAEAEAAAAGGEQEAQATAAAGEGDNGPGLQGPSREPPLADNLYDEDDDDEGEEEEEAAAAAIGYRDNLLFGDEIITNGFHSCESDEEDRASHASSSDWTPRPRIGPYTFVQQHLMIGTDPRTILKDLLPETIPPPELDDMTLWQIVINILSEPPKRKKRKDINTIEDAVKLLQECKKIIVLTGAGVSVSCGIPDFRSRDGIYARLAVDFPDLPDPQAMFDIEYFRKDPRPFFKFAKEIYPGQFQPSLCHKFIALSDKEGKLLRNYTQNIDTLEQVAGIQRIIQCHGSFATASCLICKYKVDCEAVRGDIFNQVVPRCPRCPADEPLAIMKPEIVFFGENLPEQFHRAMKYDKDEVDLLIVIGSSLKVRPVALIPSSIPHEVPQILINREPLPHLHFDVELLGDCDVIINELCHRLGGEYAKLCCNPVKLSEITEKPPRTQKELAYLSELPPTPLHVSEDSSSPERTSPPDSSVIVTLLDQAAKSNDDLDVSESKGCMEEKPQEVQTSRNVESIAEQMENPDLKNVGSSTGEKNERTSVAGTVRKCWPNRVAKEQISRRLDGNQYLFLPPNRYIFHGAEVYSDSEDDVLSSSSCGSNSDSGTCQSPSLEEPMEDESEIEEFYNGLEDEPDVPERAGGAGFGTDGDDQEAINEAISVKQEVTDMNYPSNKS

HEK-293T = assay: Cytotoxicity against human HEK293T cells at 100 uM relative to control; type: toxicity, cell-based
MOLM-13 = assay: Cytotoxicity against human MOLM-13 cells; type: functional, cell-based
[4] = biological target: T2, NAD-dependent protein deacylase sirtuin-5, mitochondrial (Homo sapiens, UniProt Q9NXA8); assay: Inhibition of SIRT5 deglutarylase activity (unknown origin)
[5] = biological target: T2, NAD-dependent protein deacylase sirtuin-5, mitochondrial; assay: Inhibition of human recombinant SIRT5 using fluorogenic Benzyl-Lys(Succinyl)-AMC as substrate incubated for 2 hrs measured by fluoroscence based microplate reader method
[6] = biological target: T2, NAD-dependent protein deacylase sirtuin-5, mitochondrial; assay: Inhibition of SIRT5 desuccinylase activity (unknown origin) using succinyl-lysine as substrate
OCI-AML2 [7] = assay: Induction of apoptosis in human OCI-AML2 cells at 20 uM relative to control; type: functional
[8] = biological target: T2, NAD-dependent protein deacylase sirtuin-5, mitochondrial; assay: Binding affinity to SIRT5 (unknown origin) assessed as deglutarylase activity by measuring inhibition constant
SKM-1 [9] = assay: Induction of apoptosis in human SKM-1 cells at 20 uM relative to control; type: functional
SKM-1 [10] = assay: Induction of apoptosis in human SKM-1 cells at 5 uM relative to control; type: functional
OCI-AML2 [11] = assay: Induction of apoptosis in human OCI-AML2 cells at 10 uM relative to control; type: functional
[12] = biological target: T1, NAD-dependent protein deacetylase sirtuin-1 (Homo sapiens); assay: Inhibition of SIRT1 (unknown origin) at 10 uM relative to control

T2 sequence (Q9NXA8 whole entry): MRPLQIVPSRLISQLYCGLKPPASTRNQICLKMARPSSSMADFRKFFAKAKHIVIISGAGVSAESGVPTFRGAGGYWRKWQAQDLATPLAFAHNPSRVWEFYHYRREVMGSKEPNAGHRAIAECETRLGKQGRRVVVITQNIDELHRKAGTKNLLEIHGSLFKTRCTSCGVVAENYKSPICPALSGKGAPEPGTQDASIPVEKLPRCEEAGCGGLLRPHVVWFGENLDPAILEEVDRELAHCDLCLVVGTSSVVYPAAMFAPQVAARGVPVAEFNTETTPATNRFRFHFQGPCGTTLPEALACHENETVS

SMILES: CC(C)C(OC(=O)C(C)(C)C)n1nnnc1CCCNC(=S)NCCCC[C@H](NS(=O)(=O)c1cccc(F)c1)C(=O)N[C@@H](Cc1c[nH]c2ccccc12)C(=O)NC1CCC1 (stereo not given in full)
IC50 (OCI-AML2 [1]): 20 µM
IC50 (SKM-1 [2]): 9 µM
inhibition [3]: 76%
Activity (HEK-293T): 35%
IC50 (MOLM-13): 24 µM

SMILES: N#C/C(=C\c1ccc(-c2ccc(C(=O)O)cc2)o1)C(=O)Nc1ccc(C#N)c(C(F)(F)F)c1
IC50 [5]: 13.9 µM

SMILES: CC(=O)NCCCC[C@H](NC(=O)[C@H](CCCCNC(=S)NCCC(=O)O)NC(=O)C(CCCNC(=N)N)NC(C)=O)C(N)=O (stereo not given in full)
IC50 [6]: 93.1 µM

SMILES: O=C(O)CCNC(=S)NCCCC[C@H](NS(=O)(=O)c1cccc(F)c1)C(=O)N[C@@H](Cc1c[nH]c2ccccc12)C(=O)NC1CCCC1
IC50 [4]: 0.23 µM

SMILES: N=C(N)NCCC[C@@H]1NC(=O)CCCCCCC(=O)NCCCC[C@@H](C(N)=O)NC(=O)[C@H](CCCCNC(=S)NCCC(=O)O)NC1=O
IC50 [6]: 2.2 µM

SMILES: CC(C)NC(=O)[C@H](Cc1c[nH]c2ccccc12)NC(=O)[C@H](CCCCNC(=S)NCCC(=O)O)NC(=O)OCc1ccccc1
Activity (SKM-1 [10]): >80%
Activity (OCI-AML2 [11]): >80%

SMILES: O=C(NC1CCC1)[C@H](Cc1c[nH]c2ccccc12)NC(=O)[C@H](CCCCNC(=S)NCCc1noc(=O)[nH]1)NS(=O)(=O)c1cccc(F)c1
inhibition [12]: 37%
IC50 [4]: ≤ 0.05 µM

SMILES: N=C(N)NCCC[C@@H]1NC(=O)CCC(=O)NCCCC[C@@H](C(N)=O)NC(=O)[C@H](CCCCNC(=S)NCCC(=O)O)NC1=O
IC50 [6]: 4 µM

SMILES: O=C(NC1CCC1)[C@H](Cc1c[nH]c2ccccc12)NC(=O)[C@H](CCCCNC(=S)NCCc1nnn[nH]1)NS(=O)(=O)c1cccc(F)c1
Ki [8]: 0.0005 µM
IC50 [4]: ≤ 0.05 µM

The next lines start with results.

IC50 [4]: 0.26 µM
SMILES: O=C(O)CCNC(=S)NCCCC[C@H](NS(=O)(=O)c1cccc(F)c1)C(=O)N[C@@H](Cc1c[nH]c2ccccc12)C(=O)NC1CC1

IC50 [5]: 16.4 µM
SMILES: N#C/C(=C\c1ccc(-c2ccc(C(=O)O)cc2)o1)C(=O)Nc1ccc(Cl)c(C(F)(F)F)c1

IC50 (OCI-AML2 [1]): > 20 µM
IC50 (SKM-1 [2]): 10 µM
Ki [8]: 0.006 µM
SMILES: O=C(O)CCNC(=S)NCCCC[C@H](NS(=O)(=O)c1cccc(F)c1)C(=O)N[C@@H](Cc1c[nH]c2ccccc12)C(=O)NC1CCC1
Activity (OCI-AML2 [7]): 25%
IC50 (MOLM-13): 29 µM
Activity (SKM-1 [9]): >80%

IC50 [5]: 101 µM
SMILES: Cc1ccc(NC(=O)/C(C#N)=C/c2ccc(-c3cccc(C(=O)O)c3)o2)cc1C
